The values below come from ChEMBL document CHEMBL4411291, “Synthesis and anti-tumor activity of imidazopyrazines as TAK1 inhibitors” (Eur J Med Chem, 2019).

Broadly, the inhibition is the share of the control response that was lost under treatment. A higher inhibition goes with a response far below the control. As usually defined, the IC50 is the concentration needed to halve the response being measured. A word on the AUC(0-t): it is exposure summed from dosing to a finite time, without extrapolation to infinity. A low value points to less exposure. As usually defined, the Cmax is the highest concentration seen after dosing. What is called half-life is how long it takes for the measured level to halve. High values mean slow loss, low ones fast loss. One may read the bioavailability as dose-corrected exposure relative to a reference, in per cent.

The source made the active and inactive calls. The calls are words filed in the database; no cut-off is given here.

Data set [1] concerns the target T1, Mitogen-activated protein kinase kinase kinase 7 (Homo sapiens) (UniProt O43318).
T1 sequence (whole entry): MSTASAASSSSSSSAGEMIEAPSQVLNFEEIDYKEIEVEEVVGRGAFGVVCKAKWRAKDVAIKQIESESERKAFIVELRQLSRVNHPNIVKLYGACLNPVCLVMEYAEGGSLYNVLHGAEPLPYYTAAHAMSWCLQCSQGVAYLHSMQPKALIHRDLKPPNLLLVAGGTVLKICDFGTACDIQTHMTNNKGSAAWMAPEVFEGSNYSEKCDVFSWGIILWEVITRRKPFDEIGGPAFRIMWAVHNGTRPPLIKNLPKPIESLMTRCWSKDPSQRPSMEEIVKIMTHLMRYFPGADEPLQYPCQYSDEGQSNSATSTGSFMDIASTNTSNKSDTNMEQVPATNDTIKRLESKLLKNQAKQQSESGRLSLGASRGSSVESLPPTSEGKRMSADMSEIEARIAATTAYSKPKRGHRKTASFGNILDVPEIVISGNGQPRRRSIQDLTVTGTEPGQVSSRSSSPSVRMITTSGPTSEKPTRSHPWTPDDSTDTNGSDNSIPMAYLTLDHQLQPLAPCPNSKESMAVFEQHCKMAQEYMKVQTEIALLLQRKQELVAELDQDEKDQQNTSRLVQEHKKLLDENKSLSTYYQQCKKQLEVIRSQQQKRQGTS
Put plainly: Inhibition of TAK1 (unknown origin) at 1 uM by LanthaScreen Eu kinase binding assay relative to control.

The target in data set [2] is T1, Mitogen-activated protein kinase kinase kinase 7 (Homo sapiens). Briefly: Inhibition of TAK1 (unknown origin) at 0.1 uM by LanthaScreen Eu kinase binding assay relative to control.
In data set [3] the target is TAK1/TAB1 (Homo sapiens, UniProt O43318). Put plainly: Inhibition of N-terminal His-tagged human TAK1 (1 to 303 amino acids)/human TAB1 (437 to 504 amino acids) expressed in baculovirus expression system using fluorescence-labeled substrate by off-chip mobility shift assay.
Data set [4] has as its system SW-620. Briefly: Growth inhibition of human SW620 cells after 96 hrs by SRB assay. In kind it is functional, cell-based. Conditions: SW-620, 96 h.
Data set [5] in a line: Stability in human liver microsomes assessed as parent compound remaining after 60 mins in presence of NADPH by HPLC analysis. In kind it is ADME, Microsome. Conditions: read-out: Stability. (In general: Liver microsomes are a subcellular fraction often used to study metabolism.)
Data set [6] in a line: Stability in mouse liver microsomes assessed as parent compound remaining after 60 mins in presence of NADPH by HPLC analysis. Conditions: read-out: Stability. The class given is ADME, Microsome.
The nature of data set [7]: Stability in human plasma assessed as parent compound remaining after 6 hrs by LC-MS/MS analysis. The class given is ADME, cell-free. Conditions: read-out: Stability.
Data set [8] can be described thus: Stability in mouse plasma assessed as parent compound remaining after 6 hrs by LC-MS/MS analysis. The class given is ADME, cell-free. Conditions: read-out: Stability.
Data set [9] is described as follows: AUC (0 to 7 hrs) in ICR mouse at 10 mg/kg, po administered as single dose or 3 mg/kg, iv by LC-MS/MS analysis. The class given is ADME, organism-based. Conditions: in vivo.
A short description of data set [10]: Cmax in ICR mouse at 10 mg/kg, po administered as single dose or 3 mg/kg, iv by LC-MS/MS analysis. In kind it is ADME, organism-based. Conditions: in vivo.
Data set [11] is described as follows: Half life in ICR mouse at 10 mg/kg, po administered as single dose or 3 mg/kg, iv by LC-MS/MS analysis. The class given is ADME, organism-based. Conditions: in vivo.
Data set [12] is described as follows: Oral bioavailability in ICR mouse at 10 mg/kg administered as single dose by LC-MS/MS analysis. The class given is ADME, organism-based. Conditions: in vivo.
The subject of data set [13] is SK-CO-1. Put plainly: Growth inhibition of human SKCO1 cells after 96 hrs by SRB assay. In kind it is functional, cell-based. Conditions: SK-CO-1, 96 h. (In general: Sulforhodamine B stains cellular protein and so reports cell mass.)
The test system of data set [14] is LoVo. Put plainly: Growth inhibition of human LoVo cells after 96 hrs by SRB assay. In kind it is functional, cell-based.
Data set [15] is described as follows: Toxicity in CAnN.Cg-Foxnlnu/Crljbgi nude mouse xenografted with human SW620 cells assessed as weight loss at 30 mg/kg, po dosed daily for 14 consecutive days. The class given is organism-based. Conditions: in vivo.
Data set [16] deals with SW-620. Put plainly: Antitumor activity against human SW620 cells xenografted in CAnN.Cg-Foxnlnu/Crljbgi nude mouse assessed as tumor growth inhibition at 30 mg/kg, po dosed daily for 14 consecutive days. In kind it is functional, organism-based. On the technique in general: Xenograft models place foreign cells or tissue in a host animal.

Sequence of TAK1/TAB1 (Q15750 whole entry, one chain of several, the tested form may be a part): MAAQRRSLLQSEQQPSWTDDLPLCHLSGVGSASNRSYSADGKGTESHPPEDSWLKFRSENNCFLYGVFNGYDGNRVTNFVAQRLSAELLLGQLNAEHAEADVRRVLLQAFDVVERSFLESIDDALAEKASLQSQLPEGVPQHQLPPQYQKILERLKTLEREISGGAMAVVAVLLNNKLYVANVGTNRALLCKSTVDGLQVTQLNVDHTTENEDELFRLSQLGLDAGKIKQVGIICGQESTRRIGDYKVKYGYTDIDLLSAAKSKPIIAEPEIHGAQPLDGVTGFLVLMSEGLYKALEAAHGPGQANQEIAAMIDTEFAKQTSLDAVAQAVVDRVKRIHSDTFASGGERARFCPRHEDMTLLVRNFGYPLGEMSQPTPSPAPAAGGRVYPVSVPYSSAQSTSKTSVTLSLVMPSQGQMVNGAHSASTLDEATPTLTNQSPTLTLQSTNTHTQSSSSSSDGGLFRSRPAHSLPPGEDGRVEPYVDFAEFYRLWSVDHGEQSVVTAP

As to `Cc1cc(NC(=O)Nc2cc(C(C)(C)C)nn2-c2cccc([N+](=O)[O-])c2)ccc1-c1cnc(NC2CC2)c2ncnn12`, the inhibition in [1] came out at 90%; in data set [2], 26%.

Take `Cc1cc(NC(=O)Nc2cc(C(C)(C)C)nn2-c2cccc(C#N)c2)ccc1-c1cnc(NC2CC2)c2ncnn12`: the inhibition in data set [1] is 92%; in data set [2], 36%.

As for `Cc1cc(NC(=O)Nc2cc(C(C)(C)C)nn2-c2ccc(F)cc2)ccc1-c1cnc(NC2CC2)c2nccn12`, the values for the inhibition in data set [1] and in data set [2] were 69% and 0%, respectively.

As to `Cc1cc(NC(=O)Nc2cc(C(C)(C)C)nn2-c2cccc(C#N)c2)ccc1-c1cnc(NC2CC2)c2nccn12`, the IC50 in data set [3] was determined as 41 nM; in data set [4], 169 nM. The inhibition worked out at 97% in data set [1] and 49% in [2]. The remaining at 1 h stood at 33% in [5] and 37% in data set [6]. Further, the remaining at 6 h in data set [7] is 100%; in [8] it was 88%. In data set [9], this compound came in with an AUC(0-t) of 360 ng·h/mL. Moreover, the concentration in data set [10] peaked (Cmax) at 231 ng/mL. Further, the half-life in data set [11] was 144 min. Also, the bioavailability in data set [12] worked out at 3.1%.

`Cc1cc(C(=O)Nc2cc(C(C)(C)C)nn2-c2ccccc2)ccc1Oc1cnc(NC2CC2)c2nccn12`: the inhibition in data set [1] stood at 3%; in data set [2] it was 4%.

For `Cc1cc(NC(=O)Nc2cc(C(C)(C)C)nn2-c2cccnc2)ccc1-c1cnc(NC2CC2)c2nccn12`, the inhibition came out at 89% in data set [1] and 43% in data set [2].

Consider `Cc1cc(NC(=O)Nc2cc(C(C)(C)C)nn2-c2cccc(F)c2)ccc1-c1cnc(NC2CC2)c2nccn12`, for which the inhibition in data set [1] amounted to 94%; in data set [2], 34%.

As to `Cc1cc(NC(=O)Nc2cc(C(C)(C)C)nn2-c2cccc(Cl)c2)ccc1-c1cnc(NC2CC2)c2ncnn12`, the inhibition in [1] turned out to be 74%; in [2], 18%.

Turning to `Cc1cc(NC(=O)Nc2cc(C(C)(C)C)nn2-c2ccccc2)ccc1Oc1cnc(NC2CC2)c2nccn12`, the figures for the inhibition in [1] and in data set [2] were 90% and 20%, respectively.

For `Cc1cc(NC(=O)Nc2cc(C(C)(C)C)nn2-c2ccc(C#N)cc2)ccc1-c1cnc(NC2CC2)c2nccn12`, the inhibition in data set [1] is 84%; in [2] it was 19%.

For the compound `Cc1ccc(C(=O)Nc2cc(C(C)(C)C)nn2-c2ccccc2)cc1Oc1cnc(NC2CC2)c2nccn12`, the inhibition in [1] and in data set [2] was 0% in each case.

Turning to `Cc1cc(NC(=O)Nc2cc(C(C)(C)C)nn2-c2ccccc2)ccc1-c1cnc(NC2CC2)c2ncnn12`, the inhibition in data set [1] was 80%; in data set [2] it was 24%.

Regarding `CCc1cc(Nc2ncc(F)c(-c3cnc4cccnn34)n2)cc(OCCN2CCC(O)CC2)c1`, the results for the inhibition in data set [1] and in [2] were 98% and 96%, respectively. Besides, the IC50 was 61 nM in data set [13], 38 nM in data set [4] and 75 nM in data set [14]. The Activity result in [15] is given as “Toxic”. The TGI result in data set [16] is “Active”.

Turning to `Cc1ccc(-n2nc(C(C)(C)C)cc2NC(=O)Nc2ccc(-c3cnc(NC4CC4)c4nccn34)c(C)c2)cc1`, the inhibition in data set [1] came out at 91%; in data set [2] it was 7%.

With `Cc1cc(NC(=O)Nc2cc(C(C)(C)C)nn2-c2cccc(C#N)c2)ccc1Oc1cnc(NC2CC2)c2nccn12`, the inhibition was 76% in data set [1] and 0% in data set [2].

For the compound `Cc1cc(NC(=O)Nc2cc(C(C)(C)C)nn2-c2cccc(Cl)c2)ccc1-c1cnc(NC2CC2)c2nccn12`, the inhibition in data set [1] stood at 84%; in data set [2], 16%.

On to `Cc1cc(NC(=O)Nc2cc(C(C)(C)C)nn2-c2ccccc2)ccc1Oc1cn2ccnc2c(NC2CC2)n1`, for which the inhibition is 30% in data set [1] and 0% in [2].
